Values quoted from earlier work in patent US12478681B2, “Non-activated, amorphous, pH neutral, two-part bedside-ready clay delivery system that treats pathogen infections in humans and animals” (priority 2019, dated 2025).

## elemental iron
  Oral dose that can cause severe toxicity, morbidity and mortality: > 60 mg/kg
  Oral dose that can have toxicity symptoms: 20 to 60 mg/kg
  Oral dose that is non-toxic: < 20 mg/kg
